According to article PMC7554340, “A Novel Dual-Targeted α-Helical Peptide With Potent Antifungal Activity Against Fluconazole-Resistant Candida albicans Clinical Isolates” (Frontiers in Microbiology, 2020):
In brackets after ≈: the same amount, converted by molar mass. Read-outs that look alike come from different tables or passages of the source. No end group written: not given here.

Assays:
[1] = tested on: C. albicans cgmcc 2.2086; test: Antifungal activity assay (broth microdilution, MIC/MFC); type: cell-based, Candida albicans
[2] = tested on: C. tropicalis cgmcc 2.1975; test: as above; type: cell-based, Candida tropicalis
[3] = tested on: C. parapsilosis cgmcc 2.3989; test: as above; type: cell-based, Candida parapsilosis
[4] = tested on: C. albicans cgmcc 2.2086; type: cell-based, Candida albicans
[5] = tested on: C. albicans 56452; test: microbe, parasite or virus in culture; settings: Candida albicans, 56452, 48 h
[6] = tested on: C. albicans 56214; test: microbe, parasite or virus in culture; settings: Candida albicans, 56214, 48 h
[7] = tested on: C. albicans 14936; test: microbe, parasite or virus in culture; settings: Candida albicans, 14936, 48 h
[8] = tested on: C. albicans 17546; test: microbe, parasite or virus in culture; settings: Candida albicans, 17546, 48 h
[9] = tested on: C. albicans 58288; test: microbe, parasite or virus in culture; settings: Candida albicans, 58288, 48 h
[10] = tested on: C. albicans sp3902; test: microbe, parasite or virus in culture; settings: Candida albicans, SP3902, 48 h
[11] = tested on: C. albicans sp3903; test: microbe, parasite or virus in culture; settings: Candida albicans, SP3903, 48 h
[12] = tested on: C. albicans sp3931; test: microbe, parasite or virus in culture; settings: Candida albicans, SP3931, 48 h
[13] = tested on: C. albicans sp3876; test: microbe, parasite or virus in culture; settings: Candida albicans, SP3876, 48 h
[14] = tested on: C. albicans strains; test: Geometric mean of MIC values against all tested C. albicans; type: cell-based, Candida albicans
[15] = tested on: C. albicans cgmcc 2.2086; test: Membrane potential assay, DiSC3(5); type: cell-based, Candida albicans; settings: 0.5 × MIC
Text: The alteration of membrane potential in peptide-treated C. albicans was detected using the membrane potential-sensitive fluorescent probe, 3,3′-dipropylthiadicarbocyanine iodide [DiSC3(5)] (Sigma-Aldrich, Shanghai, China), as previously described ([Qi et al., 2010]). In brief, C. albicans cells in mid-logarithmic growth-phase were harvested and suspended to an OD600 of 0.05 with 5-mM 4-(2-hydroxyethyl)-1-piperazineethanesulfonic acid buffer (pH 7.4, containing 20-mM glucose). After the addition of 0.4-μM DiSC3(5), samples were incubated for 90 min in the dark to obtain a stable reduction in fluorescence, and then, potassium chloride (4 M) was added to the cell suspension to give a final concentration of 100 mM. Subsequently, 2 ml of cell suspension was added to a 1-cm quartz cuvette and mixed with peptides at different concentrations. The changes in fluorescence were recorded for 900 s with an F-4500 fluorescence spectrophotometer (Hitachi, Japan) at excitation and emission wavelengths of 622 and 670 nm, respectively.

[16] = tested on: C. albicans 56452; settings: 56452, 48 h; for MIC: pH 7
[17] = tested on: C. albicans 56214; settings: 56214, 48 h; for MIC: pH 7
[18] = tested on: C. albicans 14936; settings: 14936, 48 h; for MIC: pH 7
[19] = tested on: C. albicans 17546; settings: 17546, 48 h; for MIC: pH 7
[20] = tested on: C. albicans 58288; settings: 58288, 48 h; for MIC: pH 7
[21] = tested on: C. albicans sp3902; settings: sp3902, 48 h; for MIC: pH 7
[22] = tested on: C. albicans sp3903; settings: sp3903, 48 h; for MIC: pH 7
[23] = tested on: C. albicans sp3931; settings: sp3931, 48 h; for MIC: pH 7
[24] = tested on: C. albicans sp3876; settings: sp3876, 48 h; for MIC: pH 7
[25] = tested on: Candida strains; settings: 48 h
[26] = tested on: IPEC-J2 cells
[27] = tested on: PMEC cells
[28] = tested on: human erythrocytes; test: Hemolysis assay; settings: minimal hemolytic concentration inducing 10% hemolysis of human erythrocytes; 1 h, 37°C, hemoglobin at 570 nm; probit regression; three independent experiments
[29] = tested on: IPEC-J2 and PMEC cells; test: Cytotoxicity MTT assay, statements for both cell lines; settings: 24 h, 1-64 μM
[30] = tested on: human erythrocytes
[31] = tested on: IPEC-J2 and PMEC cells
[32] = 50 μl of MIC wells plated on YPD agar, 28°C, 48 h, lowest concentration that completely killed fungal cells, consensus of at least three independent experiments

`OC(Cn1cncn1)(Cn1cncn1)c1ccc(F)cc1F` [FLU, fluconazole] showed an MFC ([1]; Candida albicans, CGMCC2, 50 μl of MIC wells plated on YPD agar, 28°C, 48 h, lowest concentration that completely killed fungal cells, consensus of at least three independent experiments) of 4 µM (≈ 1.23 µg/mL), an MIC ([1]; Candida albicans, CGMCC2, broth microdilution, RPMI-MOPS pH 7.0, 28°C, 48 h, lowest concentration inhibiting 99% of growth (A492)) of 2 µM (≈ 0.613 µg/mL) and an MFC ([2]; Candida tropicalis, CGMCC2, 50 μl of MIC wells plated on YPD agar, 28°C, 48 h, lowest concentration that completely killed fungal cells, consensus of at least three independent experiments) of 32 µM (≈ 9.8 µg/mL). For the same molecule, the MIC ([2]; Candida tropicalis, CGMCC2, broth microdilution, RPMI-MOPS pH 7.0, 28°C, 48 h, lowest concentration inhibiting 99% of growth (A492)) was 4 µM (≈ 1.23 µg/mL), the MFC ([3]; Lodderomyces parapsilosis, CGMCC2, 50 μl of MIC wells plated on YPD agar, 28°C, 48 h, lowest concentration that completely killed fungal cells, consensus of at least three independent experiments) was 8 µM (≈ 2.45 µg/mL) and the MIC ([3]; Lodderomyces parapsilosis, CGMCC2, broth microdilution, RPMI-MOPS pH 7.0, 28°C, 48 h, lowest concentration inhibiting 99% of growth (A492)) was 4 µM (≈ 1.23 µg/mL). The “change of MIC after serial passage” value [4] was “eightfold”, the MFC [5] was > 256 µM and the MIC ([5]; pH 7) was > 256 µM. For the same molecule, the MFC [6] was > 256 µM, the MIC ([6]; pH 7) was > 256 µM and the MFC [7] was > 256 µM. The MIC ([7]; pH 7) was 32 µM (≈ 9.8 µg/mL), the MFC [8] was > 256 µM and the MIC ([8]; pH 7) was > 256 µM. The MFC [9] was > 256 µM, the MIC ([9]; pH 7) was 8 µM (≈ 2.45 µg/mL) and the MFC [10] was > 256 µM. The MIC ([10]; pH 7) was 16 µM (≈ 4.9 µg/mL), the MFC [11] was 64 µM (≈ 19.6 µg/mL) and the MIC ([11]; pH 7) was 16 µM (≈ 4.9 µg/mL). The MFC [12] was 64 µM (≈ 19.6 µg/mL), the MIC ([12]; pH 7) was 1 µM (≈ 0.306 µg/mL) and the MFC [13] was > 256 µM. For the same molecule, the MIC ([13]; pH 7) was > 256 µM.

In the case of `CC[C@H](C)[C@H](NC(=O)CN)C(=O)NCC(=O)N[C@@H](C)C(=O)N[C@H](C(=O)N[C@@H](CC(C)C)C(=O)N[C@@H](CCCCN)C(=O)N[C@H](C(=O)N[C@@H](CC(C)C)C(=O)N[C@H](C(=O)N[C@H](C(=O)NCC(=O)N[C@@H](CC(C)C)C(=O)N1CCC[C@H]1C(=O)N[C@@H](C)C(=O)N[C@@H](CC(C)C)C(=O)N[C@H](C(=O)N[C@@H](CO)C(=O)N[C@@H](Cc1c[nH]c2ccccc12)C(=O)N[C@H](C(=O)N[C@@H](CCCCN)C(=O)N[C@@H](CCCNC(=N)N)C(=O)N[C@@H](CCCCN)C(=O)N[C@@H](CCCNC(=N)N)C(=O)N[C@@H](CCC(N)=O)C(=O)N[C@@H](CCC(N)=O)C(N)=O)[C@@H](C)CC)[C@@H](C)CC)[C@@H](C)O)[C@@H](C)O)C(C)C)C(C)C` [Melittin, reference compound], the MFC ([1]; cgmcc 2.2086, 48 h) is reported as 8 µM (≈ 22.8 µg/mL), the MIC ([1]; cgmcc 2.2086, 48 h, pH 7) is reported as 4 µM (≈ 11.4 µg/mL) and the MFC ([2]; cgmcc 2.1975, 48 h) is reported as 8 µM (≈ 22.8 µg/mL). It also gave an MIC ([2]; cgmcc 2.1975, 48 h, pH 7) of 4 µM (≈ 11.4 µg/mL), an MFC ([3]; cgmcc 2.3989, 48 h) of 2 µM (≈ 5.69 µg/mL) and an MIC ([3]; cgmcc 2.3989, 48 h, pH 7) of 2 µM (≈ 5.69 µg/mL). For the same molecule, the GM [14] was 4.59 µM, the “cytoplasmic membrane depolarization, melittin against RF3 (in words)” value [15] was “stronger membrane depolarization” and the MFC [16] was 8 µM (≈ 22.8 µg/mL). For the same molecule, the MIC [16] was 8 µM (≈ 22.8 µg/mL), the MFC [17] was 4 µM (≈ 11.4 µg/mL) and the MIC [17] was 4 µM (≈ 11.4 µg/mL). The MFC [18] was 8 µM (≈ 22.8 µg/mL), the MIC [18] was 4 µM (≈ 11.4 µg/mL) and the MFC [19] was 8 µM (≈ 22.8 µg/mL). For the same molecule, the MIC [19] was 8 µM (≈ 22.8 µg/mL), the MFC [20] was 4 µM (≈ 11.4 µg/mL) and the MIC [20] was 4 µM (≈ 11.4 µg/mL). It also gave an MFC [21] of 2 µM (≈ 5.69 µg/mL), an MIC [21] of 2 µM (≈ 5.69 µg/mL) and an MFC [22] of 4 µM (≈ 11.4 µg/mL). It also gave an MIC [22] of 4 µM (≈ 11.4 µg/mL), an MFC [23] of 8 µM (≈ 22.8 µg/mL) and an MIC [23] of 8 µM (≈ 22.8 µg/mL). It also gave an MFC [24] of 4 µM (≈ 11.4 µg/mL) and an MIC [24] of 4 µM (≈ 11.4 µg/mL).

In the case of KIGKVLLVKGIKKIGKVL-NH2 [KV3], the MFC ([1]; cgmcc 2.2086, 48 h) is reported as 32 µM, the MIC ([1]; cgmcc 2.2086, 48 h, pH 7) is reported as 32 µM and the MFC ([2]; cgmcc 2.1975, 48 h) is reported as 16 µM. It also gave an MIC ([2]; cgmcc 2.1975, 48 h, pH 7) of 16 µM, an MFC ([3]; cgmcc 2.3989, 48 h) of 32 µM and an MIC ([3]; cgmcc 2.3989, 48 h, pH 7) of 32 µM. For the same molecule, the MFC [16] was 64 µM, the MIC [16] was 32 µM and the MFC [17] was 32 µM. For the same molecule, the MIC [17] was 32 µM, the MFC [18] was >64 µM and the MIC [18] was >64 µM. It also gave an MFC [19] of 64 µM, an MIC [19] of 64 µM and an MFC [20] of 64 µM. It also gave an MIC [20] of 64 µM, an MFC [21] of 64 µM and an MIC [21] of 64 µM. For the same molecule, the MFC [22] was 64 µM, the MIC [22] was 64 µM and the MFC [23] was 64 µM. For the same molecule, the MIC [23] was 64 µM, the MFC [24] was 32 µM and the MIC [24] was 16 µM. The “MIC values on Candida strains (range)” value [25] was 16 to 64 µM, the IC50 ([26]; IPEC-J2 cells, MTT, 24 h treatment, 1-64 μM, probit regression) was > 64 µM and the IC50 ([27]; PMEC cells, MTT, 24 h treatment, 1-64 μM, probit regression) was > 64 µM. The HC10 [28] was >64 µM and the “cytotoxic effects (in words)” value [29] was “negligible cytotoxic effects”.

Molecule RIGRFLLFRGIRRIGRFL-NH2 [RF3] has an MFC [1, 32] of 8 µM, an MIC ([1]; cgmcc 2.2086, 48 h, pH 7) of 8 µM and an MFC [2, 32] of 8 µM. The MIC ([2]; cgmcc 2.1975, 48 h, pH 7) was 8 µM, the MFC [3, 32] was 16 µM and the MIC ([3]; cgmcc 2.3989, 48 h, pH 7) was 16 µM. The MFC [16] was 8 µM, the MIC [16] was 8 µM and the MFC [17] was 8 µM. For the same molecule, the MIC [17] was 4 µM, the MFC [18] was 8 µM and the MIC [18] was 8 µM. It also gave an MFC [19] of 16 µM, an MIC [19] of 8 µM and an MFC [20] of 8 µM. It also gave an MIC [20] of 8 µM, an MFC [21] of 8 µM and an MIC [21] of 8 µM. The MFC [22] was 8 µM, the MIC [22] was 8 µM and the MFC [23] was 8 µM. The MIC [23] was 8 µM, the MFC [24] was 4 µM and the MIC [24] was 4 µM. For the same molecule, the HC10 [30] was > 64 µM, the IC50 ([26]; 24 h) was 59.8 µM and the IC50 ([27]; 24 h) was 54 µM. For the same molecule, the “cytotoxicity at 64 μM (in words)” value [31] was “sharp rise in cytotoxicity”.
